Assay results taken from patent US20170112741A1, “AGENT FOR AMELIORATING SKIN SYMPTOM, HAIR GROWTH AGENT OR SLIMMING AGENT” (GOLDCREST MEDICINE INSTITUTE CO., LTD., priority 2014, published 2017).

Key:
Type in all cases: in vivo, human
senile plaques = experiment: Change in 5 senile plaques on the back of both hands of patient A under orally administered cabergoline
Excerpt: To find out the pharmaceutical effect of orally administered cabergoline, a change in the symptom of 5 senile plaques occurring on the back of both hands of patient A was investigated for 10 weeks from Jun. 20, 2013 (Thursday) to Aug. 29, 2013 (Thursday).
Patient A was a person with prolactin-producing pituitary adenoma. Before the clinical test of the treatment, patient A had dark brown circle-like senile plaques, specifically, 3 plaques on the back of the left hand (long diameter 11 mm×short diameter 8 mm, long diameter 8 mm×short diameter 6 mm, and long diameter 7 mm×short diameter 5 mm) and 2 plaques on the back of the right hand (long diameter 10 mm×short diameter 8 mm and long diameter 7 mm×short diameter 6 mm).
According to the doctor's instruction, oral administration was performed twice/week, on Monday and Thursday, for the first 4 weeks (from June 20 to July 15), and the dose was 2 mg/4 weeks.
A total of 1 mg of cabergoline were orally administered by this 4-week administration (administration dates are as follows: July 18, July 25, August 1, and August 8).
The cabergoline administration on week 9 and week 10 was performed on August 15 (Thursday) and August 22 (Thursday).

prolactin level in blood = experiment: Prolactin level in blood of patient A (prolactin-producing pituitary adenoma) during cabergoline treatment
Procedure: In view of the dramatic improvement of prolactin level, the doctor ordered that the cabergoline administration for the next 1 month be changed to one tablet/week, and oral administration be carried out before sleeping on Thursday. […] As such, the cabergoline administration was maintained at one tablet/week, and the administration period was extended up to 2 months.
Thus, the treatment regimen using cabergoline from August 15 to October 3 was also determined to be oral administration of one tablet (0.25 mg) on Thursday.

moles = experiment: Effect of oral cabergoline on 10 moles of the femoral region of the right leg; details: Jan. 20, 2014, after 7 months oral cabergoline; for Color and shape of mole 1, upper part of side area / Color and shape of mole 2, lower part of side area: Jun. 20, 2013: Black rectangle
Procedure: 10 moles were present within an area having a width of 10 cm and a length of 8 cm extending from the outer side to the front side of the femoral region of the right leg. After 7 months, the state of those 10 moles was observed and the effect of oral administration of cabergoline was investigated.
For the first 4 weeks from […], one tablet (0.25 mg) of carbegoline was administered on Monday and Thursday. The total dose over the 4 weeks was 2 mg. For the following 26 weeks, one tablet of cabergoline was administered on every Thursday. The total dose of cabergoline over the 7-month treatment period was calculated to be 8.5 mg.

[1] = listed as novel skin treatment agent
[2] = Jun. 20, 2013: Dark brown circle

C=CCN1C[C@H](C(=O)N(CCCN(C)C)C(=O)NCC)C[C@@H]2c3cccc4[nH]cc(c34)C[C@H]21 [cabergoline] was tested, and the “color of the senile plaques” value (senile plaques; August, 6 weeks after starting cabergoline administration) was “started to become lighter”, the “state of the senile plaques” value (senile plaques; end of August, after 10 weeks oral cabergoline) was “clearly disappeared” and the “state of the 5 senile plaques” value (senile plaques; first 4 weeks (June 20 to July 15), oral twice/week, 2 mg/4 weeks, direct observation) was “no change was recognized”. The “skin of the back of both hands” value (senile plaques; from end of August, previously flecked with pigmented macules and dry) was “gradually started to become white and have lighter skin texture”, the “size of the senile plaques” value (senile plaques; from mid-August, one tablet (0.25 mg)/week oral) was “started to show a tendency to shrink in size” and the “prolactin level in blood” value (prolactin level in blood; August 14, after further 4 weeks at one tablet (0.25 mg)/week oral) was 47.8 ng/mL. For the same compound, the “prolactin level in blood” value (prolactin level in blood; July 17, after 4 weeks at 2 mg/4 weeks oral, level on April 18 was 20888 ng/mL) was 101.8 ng/mL, the prolactin level in blood (earlier level as restated) (prolactin level in blood; level before the decrease seen on August 14) was 102 ng/mL and the “Appearance of all 4 moles on the front area” value (moles) was “turned into faint flesh colored, pigmented macules”. For the same compound, the “Diameter of the 2 light brown circular moles sandwiching the red moles of the middle area” value (moles) was 1 mm, the “Diameter of the remaining 2 small front-area moles” value (moles) was 1 mm and the “Size change of the front-area moles of 4.5 mm and 3 mm” value (moles) was “hardly shrunk”. For the same compound, the “Appearance of mole 7, upper part of front area” value (moles; Jun. 20, 2013: 3.3 × 3.1 Brown circle-like, cell continues: flesh color) was “Turned into weak pigmented macules having”, the “Size change of mole 7, upper part of front area” value (moles; Jun. 20, 2013: 3.3 × 3.1 mm) was “flesh color with almost no change in size” and the “Color and shape of mole 1, upper part of side area” value (moles) was “dark brown rectangular mole”. The “Color and shape of mole 2, lower part of side area” value (moles) was “faded light brown oval mole with an unclear border”, the “Color and shape of mole 1, upper part of side area” value (moles; [1]) was “Dark brown rectangle” and the “Color and shape of mole 2, lower part of side area” value (moles; [1]) was “Faint, light brown rectangle”. For the same compound, the “Color and shape of mole 4, central left part of middle area” value (moles; Jun. 20, 2013: Brown rectangle) was “Light red circle-like”, the “Color and shape of mole 3, upper part of middle area” value (moles; [2]) was “Faint, light brown circle” and the “Color and shape of mole 6, lower part of middle area” value (moles; [2]) was “Dark brown circle”. The “Color and shape of mole 5, central right part of middle area” value (moles; Jun. 20, 2013: Dark brown oval) was “Red circle-like”.
